Data reported in ChEMBL document CHEMBL3988442, “University of Dundee, Small-Polar-MMV Screening Library” (2021).

Key:
[1] = microbe, parasite or virus in culture; conditions: Mycobacterium tuberculosis, 96 h, read-out: pIC50 (converted)
[2] = microbe, parasite or virus in culture; conditions: Mycobacterium tuberculosis, 72 h, read-out: pIC50 (converted)

## COc1cccc(CN2CCC(CO)(Cc3ccc(Cl)cc3)CC2)c1O
[1]
  IC50: 26.1 µM
[2]
  IC50: 29.4 µM

## CC(C)Oc1cccc(CN(C)C(=O)Cc2ccon2)c1
[1]
  IC50: > 50.1 µM
[2]
  IC50: > 50.1 µM

## Cc1cc2c(cc1S(=O)(=O)N1CCCC(N)C1)OCO2 (stereo not given)
[1]
  IC50: > 501 µM
[2]
  IC50: 261 µM

## CC(C)c1ccc(O)c(C(=O)NC2CCN(c3ncccn3)CC2)c1
[1]
  IC50: 24.7 µM
[2]
  IC50: 20.4 µM

## CCCC(=O)N(CCCN1CCOCC1)c1nc2c(C)ccc(Cl)c2s1
[1]
  IC50: 19.2 µM
[2]
  IC50: 12.8 µM

## CCOCC(=O)NC(C)c1c(F)cccc1OC (stereo not given)
[1]
  IC50: 277 µM
[2]
  IC50: 178 µM

## O=C(NCc1cccc(Cl)c1)c1cnns1
[1]
  IC50: 159 µM
[2]
  IC50: 297 µM

## CCS(=O)(=O)NCCNS(=O)(=O)c1ccc(C)cc1Cl
[1]
  IC50: > 501 µM
[2]
  IC50: > 501 µM

## CC(C)(C)c1ccc2c(c1)C(N)C(=O)N2 (stereo not given)
[1]
  IC50: 260 µM
[2]
  IC50: 377 µM

## COCCc1noc(C2CNC2)n1
[1]
  IC50: 250 µM
[2]
  IC50: 247 µM

## CCOCC(=O)NCC1(O)CCCc2ccccc21 (stereo not given)
[1]
  IC50: 231 µM
[2]
  IC50: 83.9 µM

## CN1N=C(C(=O)NCc2csc(Br)c2)CCC1=O
[1]
  IC50: 51 µM
[2]
  IC50: 147 µM

## Cc1cccnc1CN1CCOC(Cc2cccc3ccccc23)C1 (stereo not given)
[1]
  IC50: > 50.1 µM
[2]
  IC50: > 50.1 µM

## COc1ccc2c(c1)CCN2C(=O)C(C)(C)C#N
[1]
  IC50: 293 µM
[2]
  IC50: 156 µM

## COc1cccc(S(=O)(=O)CCN(C)CCO)c1
[1]
  IC50: 352 µM
[2]
  IC50: 109 µM

## Cc1cc(C(C)NC(=O)CN2CSCC2=O)c(C)s1 (stereo not given)
[1]
  IC50: > 501 µM
[2]
  IC50: 274 µM

## O=C(c1cc(Br)c[nH]1)N1CCN2CCCCC2C1 (stereo not given)
[1]
  IC50: > 501 µM
[2]
  IC50: 232 µM

## NC(=O)C1CCN(C(=O)COc2ccc(F)cc2Br)C1 (stereo not given)
[1]
  IC50: > 501 µM
[2]
  IC50: > 501 µM

## NCc1ccc(Cl)cn1
[1]
  IC50: 249 µM
[2]
  IC50: 324 µM

## Fc1cnc(N2CCOCC3(CCCN(c4cnccn4)C3)C2)nc1 (stereo not given)
[1]
  IC50: > 50.1 µM
[2]
  IC50: > 50.1 µM

## CSCc1cccc(CNC(=O)c2cc[nH]n2)c1
[1]
  IC50: > 501 µM
[2]
  IC50: 308 µM

## CNC(=O)c1sc(NC2CC2)nc1C
[1]
  IC50: 88.1 µM
[2]
  IC50: 72.7 µM

## O=C(c1coc(COc2cccc3cnccc23)n1)N1CCSCC1
[1]
  IC50: > 50.1 µM
[2]
  IC50: > 50.1 µM

## Nc1ccc(CNc2ccc(C(F)(F)F)nn2)cn1
[1]
  IC50: > 501 µM
[2]
  IC50: > 501 µM

## COC(=O)COc1ccc(-c2noc(C3CCCO3)n2)cc1 (stereo not given)
[1]
  IC50: 18.6 µM
[2]
  IC50: 31.9 µM

## O=C(CSc1cnn[nH]1)OCc1ccccc1
[1]
  IC50: > 501 µM
[2]
  IC50: 67.9 µM

## CN(C)S(=O)(=O)NC(c1ccccc1)c1ccccc1
[1]
  IC50: > 501 µM
[2]
  IC50: 195 µM

## O=C(Nc1cccc(-n2cccn2)c1)N1CCSCC1
[1]
  IC50: > 501 µM
[2]
  IC50: > 501 µM

## CNS(=O)(=O)c1ccc(C(=O)NCc2ccccc2)o1
[1]
  IC50: > 501 µM
[2]
  IC50: 151 µM

## Fc1ccc(N2CCCN(c3ccc(Cn4ccnc4)cn3)CC2)cc1
[1]
  IC50: 43.5 µM
[2]
  IC50: 29.6 µM

## Cc1noc(-c2c[nH]nc2C2CCCN2C(=O)c2ccccc2)c1C (stereo not given)
[1]
  IC50: > 50.1 µM
[2]
  IC50: > 50.1 µM

## O=C(CN1CCN(c2ccccc2)CC1)N1CCCC1
[1]
  IC50: > 501 µM
[2]
  IC50: > 501 µM

## Cc1ccc(C(=O)N2CCC3(CCCCO3)CC2)cn1
[1]
  IC50: > 501 µM
[2]
  IC50: 258 µM

## CCCC(=O)NC(C)(C)Cc1ccccc1OC
[1]
  IC50: > 50.1 µM
[2]
  IC50: 3.52 µM

## OCCOCCNCc1ccc(-c2ccc(F)cc2)o1
[1]
  IC50: 127 µM
[2]
  IC50: 288 µM

## Fc1cccc(OC2CCN(CCn3cc4ccccc4n3)CC2)c1
[1]
  IC50: 26.1 µM
[2]
  IC50: > 50.1 µM

## Cc1ccc(C)c(-n2cc(CN3CC[C@@H](O)C3)c(-c3ccccc3)n2)c1
[1]
  IC50: > 50.1 µM
[2]
  IC50: 27.1 µM

## NCCC1CN(Cc2cc3ccccc3s2)CCO1 (stereo not given)
[1]
  IC50: 332 µM
[2]
  IC50: 308 µM

## COC(=O)CNc1ccccc1
[1]
  IC50: 123 µM
[2]
  IC50: 463 µM

## CC1(NC(=O)CC2CCc3ccccc32)CCOCC1 (stereo not given)
[1]
  IC50: > 50.1 µM
[2]
  IC50: > 50.1 µM

## Cc1ccc(N2CCN(C(=O)CCC(F)(F)F)C(C)C2)cc1 (stereo not given)
[1]
  IC50: > 50.1 µM
[2]
  IC50: > 50.1 µM

## CCN(C)S(=O)(=O)N(CC)CC(O)c1ccc(C)cc1 (stereo not given)
[1]
  IC50: 293 µM
[2]
  IC50: 334 µM

## N[C@@H](CO)C(=O)N1CCC(Cc2ccc(F)cc2)CC1
[1]
  IC50: > 501 µM
[2]
  IC50: 195 µM

## Cc1nc(CN2CCC(CNC(=O)NCCC3CCC3)CC2)oc1C
[1]
  IC50: 0.791 µM
[2]
  IC50: 1.06 µM

## Cc1cnc(NC(=O)c2cccc(CN(C)Cc3ccno3)c2)s1
[1]
  IC50: 37.3 µM
[2]
  IC50: 36.1 µM

## CN(Cc1cnn(C)c1)C(=O)c1cc(Br)c[nH]1
[1]
  IC50: > 501 µM
[2]
  IC50: 95.2 µM

## CCC(C(=O)N1CCC(N)CC1)c1ccccc1 (stereo not given)
[1]
  IC50: > 501 µM
[2]
  IC50: 118 µM

## CCCc1nn(Cc2ccc(Br)s2)c(=O)o1
[1]
  IC50: 25.4 µM
[2]
  IC50: 31.8 µM

## CC(C)CNC(=O)c1cc2c(s1)CCN2Cc1cccnc1
[1]
  IC50: > 50.1 µM
[2]
  IC50: > 50.1 µM

## O=C(CCn1cc(Br)cn1)NCc1cccs1
[1]
  IC50: 109 µM
[2]
  IC50: 102 µM

## Clc1cnc(NCCNCc2cc[nH]n2)c(Cl)c1
[1]
  IC50: > 501 µM
[2]
  IC50: 227 µM

## COc1cccc(S(=O)(=O)CCN2CCC(O)CC2)c1
[1]
  IC50: > 501 µM
[2]
  IC50: 397 µM

## CC(Sc1nc2ccccc2o1)C(=O)N1CCOCC1 (stereo not given)
[1]
  IC50: 11.7 µM
[2]
  IC50: 19.2 µM

## NCC1CN(Cc2c(Cl)cncc2Cl)CCO1 (stereo not given)
[1]
  IC50: > 501 µM
[2]
  IC50: 70.8 µM

## CC(=O)c1c(C)[nH]c(C(=O)OCC(=O)N(C)C)c1C
[1]
  IC50: 286 µM
[2]
  IC50: 279 µM

## CN(Cc1ccc(N)nc1)c1ncc(Cl)cn1
[1]
  IC50: 237 µM
[2]
  IC50: 208 µM

## COCCNC(=O)Nc1ccc2c(c1)OC(C)(C)O2
[1]
  IC50: 170 µM
[2]
  IC50: 65.7 µM

## CC(C)Oc1cccc(C(O)CNC(=O)NCc2cccs2)c1 (stereo not given)
[1]
  IC50: 30.8 µM
[2]
  IC50: > 50.1 µM

## O=C(NC1=NCCS1)c1sccc1C1CC1
[1]
  IC50: 398 µM
[2]
  IC50: 232 µM

## COCc1nn(Cc2csc(C(C)C)n2)c(=O)o1
[1]
  IC50: 22.5 µM
[2]
  IC50: 14.9 µM

## Cc1nc(O)cc(CCNC(=O)C2CC(=O)N(CC(C)C)C2)n1 (stereo not given)
[1]
  IC50: > 50.1 µM
[2]
  IC50: > 50.1 µM

## CC(=O)NCC1CN(c2ncccc2F)CCO1 (stereo not given)
[1]
  IC50: 210 µM
[2]
  IC50: 243 µM

## COc1ccc(-c2ccccc2CCN)c(OC)c1
[1]
  IC50: 41.6 µM
[2]
  IC50: 48.2 µM

## CC(C)(N)CN1CCCN(c2ccc(F)cc2)CC1
[1]
  IC50: 265 µM
[2]
  IC50: 203 µM

## COc1ccc(CC(=O)Nc2c(C)nc(N3CCCC3)nc2C)cc1
[1]
  IC50: > 50.1 µM
[2]
  IC50: > 50.1 µM

## O=C(NC1CCc2ccc(F)cc21)c1c[nH]nn1 (stereo not given)
[1]
  IC50: 399 µM
[2]
  IC50: > 501 µM

## CCCN(CCC(=O)NC(=O)NC)CC1CCCCO1 (stereo not given)
[1]
  IC50: 240 µM
[2]
  IC50: 93.8 µM

## COc1ccc(OC)c(NC(=O)COCC(F)(F)F)c1
[1]
  IC50: > 501 µM
[2]
  IC50: 227 µM

## O=C(NCc1ccc2c(c1)OCO2)N1CCCCC1
[1]
  IC50: 43.3 µM
[2]
  IC50: 139 µM

## COCCC(CO)NC(=O)c1cnn(C(C)C)c1C (stereo not given)
[1]
  IC50: 124 µM
[2]
  IC50: 110 µM

## CCN(CC)CCS(=O)(=O)c1ccccc1
[1]
  IC50: > 501 µM
[2]
  IC50: 300 µM

## CNCCc1ccccc1OC
[1]
  IC50: 124 µM
[2]
  IC50: 74.4 µM

## CN(C)S(=O)(=O)c1ccc(CN2CCC(C(N)=O)CC2)o1
[1]
  IC50: > 50.1 µM
[2]
  IC50: > 50.1 µM

## CCOc1ccc(C(=O)CCN(C)C)cc1
[1]
  IC50: 191 µM
[2]
  IC50: 160 µM

## CC(c1ccccn1)N(C)C(=O)NCCn1c(=O)oc2ccccc21 (stereo not given)
[1]
  IC50: > 50.1 µM
[2]
  IC50: > 50.1 µM
